# What was measured:
# [1] = in vivo; cited from earlier work
# [2] = cited from earlier work
# [3] = system: patients; settings: cited from earlier work
# [4] = Experiment on stability of simvastatin; assay type: physicochemical; settings: under pH of 5-7
# [5] = system: patients (clinical cases); test: Summary of clinical cases; settings: patient, simvastatin 20 mg; for blood ammonia: before test 72; for cholesterol in the blood: before test 249; for concentration of cholesterol in the blood: before 249
# [6] = system: patients; settings: patient with abnormal heart function, 40 mg alone, within 6 months, from 0.70; cited from earlier work
molecule,measurement,setting,value
Vitamin E,amount at which no toxic and side effect is found,[1],500 mg/day
COC1=C(OC)C(=O)C(C/C=C(\C)CC/C=C(\C)CC/C=C(\C)CC/C=C(\C)CC/C=C(\C)CC/C=C(\C)CC/C=C(\C)CC/C=C(\C)CC/C=C(\C)CCC=C(C)C)=C(C)C1=O [coenzyme Q10],amount at which no toxic and side effect is found,[1],100 mg/kg body weight/day
same,solubility in an aqueous medium,[2],very low
same,outcome of patients close to death due to heart failure,[3]; 19 patients,becoming better
same,patients with three-year persistence,"[3]; added to traditional therapy for heart diseases, traditional therapy 25%",75%
silymarin,amount at which no toxic and side effect is found,[1],200 mg/kg body weight/day
C[N+](C)(C)C[C@H](O)CC(=O)[O-] [L-Carnitine],amount at which no toxic and side effect is found,[1],500 mg/kg body weight/day
CCC(C)(C)C(=O)O[C@H]1C[C@@H](C)C=C2C=C[C@H](C)[C@H](CC[C@@H]3C[C@@H](O)CC(=O)O3)[C@H]21 [simvastatin],stability of simvastatin solid,[4],good stability
same,ejection fraction,"[5]; 5 weeks, before test 0.59",0.62
same,blood ammonia,[5]; 5 weeks,84 µg/L
same,cholesterol in the blood,[5]; 5 weeks,202 mg/L
same,ejection fraction,"[5]; 10 weeks, before test 0.59",0.60
same,blood ammonia,[5]; 10 weeks,69 µg/L
same,cholesterol in the blood,[5]; 10 weeks,198 mg/L
same,ejection fraction,"[5]; 15 weeks, before test 0.59",0.63
same,blood ammonia,[5]; 15 weeks,77 µg/L
same,cholesterol in the blood,[5]; 15 weeks,194 mg/L
same,ejection fraction,"[5]; 20 weeks, before test 0.59",0.58
same,blood ammonia,[5]; 20 weeks,108 µg/L
same,cholesterol in the blood,[5]; 20 weeks,197 mg/L
same,ejection fraction,"[5]; 25 weeks, before test 0.59",0.62
same,blood ammonia,[5]; 25 weeks,89 µg/L
same,cholesterol in the blood,[5]; 25 weeks,192 mg/L
same,ejection fraction,"[5]; 30 weeks, before test 0.59",0.61
same,blood ammonia,[5]; 30 weeks,93 µg/L
same,cholesterol in the blood,[5]; 30 weeks,194 mg/L
same,ejection fraction,"[5]; 35 weeks, before test 0.59",0.61
same,blood ammonia,[5]; 35 weeks,162 µg/L
same,cholesterol in the blood,[5]; 35 weeks,189 mg/L
same,ejection fraction,"[5]; after 6 months, before 0.59",0.61
same,concentration of blood ammonia,"[5]; after 6 months, before 72",162 ng/mL
same,concentration of cholesterol in the blood,[5]; after 6 months,189 mg/L
same,concentration of cholesterol in the blood,[5]; after one month,202 mg/L
O=C(O)CCCCC1CCSS1 (centres unmarked) [lipoic acid],amount at which no toxic and side effect is found,[1],300 mg/day
CC[C@H](C)C(=O)O[C@H]1C[C@@H](C)C=C2C=C[C@H](C)[C@H](CC[C@@H]3C[C@@H](O)CC(=O)O3)[C@H]21 [lovastatin],ejection fraction of heart,[6],0.54
